Converted amounts (≈) assume the structure as drawn. One block for each compound: values may come before it. The source made the active and inactive calls. No cut-off for these calls is given here.
Assays:
[1] = test system: Escherichia coli; test: Antimicrobial activity against Escherichia coli 25922; format: functional
[2] = test system: Pseudomonas aeruginosa; test: Antimicrobial activity against Pseudomonas aeruginosa ATCC 27853; format: functional
[3] = test system: Pseudomonas aeruginosa; test: Antimicrobial activity against Pseudomonas aeruginosa ATCC 10145; format: functional
[4] = test system: Burkholderia multivorans; test: Antimicrobial activity against genomovar type II Burkholderia multivorans C1576; format: functional
[5] = test system: Burkholderia anthina; test: Antimicrobial activity against genomovar type VIII Burkholderia anthina AU1293 at 40 ug/disk by disk diffusion growth inhibition assay; format: functional; conditions: read-out: DIZ
[6] = test system: Burkholderia anthina; test: Antimicrobial activity against genomovar type VIII Burkholderia anthina J2552 at 40 ug/disk by disk diffusion growth inhibition assay; format: functional
[7] = test system: Burkholderia anthina; test: Antimicrobial activity against genomovar type VIII Burkholderia anthina C1765 at 40 ug/disk by disk diffusion growth inhibition assay; format: functional; conditions: read-out: DIZ
[8] = test system: Burkholderia dolosa; test: Antimicrobial activity against genomovar type VI Burkholderia dolosa STM1441 at 40 ug/disk by disk diffusion growth inhibition assay; format: functional; conditions: read-out: DIZ
[9] = test system: Burkholderia cenocepacia; test: Antimicrobial activity against genomovar type III Burkholderia cenocepacia BC7 at 40 ug/disk by disk diffusion growth inhibition assay; format: functional, organism-based
[10] = test system: Burkholderia vietnamiensis; test: Antimicrobial activity against genomovar type V Burkholderia vietnamiensis FC441 at 40 ug/disk by disk diffusion growth inhibition assay; format: functional; conditions: read-out: DIZ
[11] = test system: Burkholderia stabilis; test: Antimicrobial activity against genomovar type IV Burkholderia stabilis LMG 14086 at 40 ug/disk by disk diffusion growth inhibition assay; format: functional
[12] = test system: Burkholderia cenocepacia; test: Antimicrobial activity against genomovar type III Burkholderia cenocepacia J415 at 40 ug/disk by disk diffusion growth inhibition assay; format: functional; conditions: read-out: DIZ
[13] = test system: Burkholderia cenocepacia; test: Antimicrobial activity against genomovar type III Burkholderia cenocepacia C5424 at 40 ug/disk by disk diffusion growth inhibition assay; format: functional; conditions: read-out: DIZ
[14] = test system: Burkholderia multivorans; test: Antimicrobial activity against genomovar type II Burkholderia multivorans ATCC 17616 at 40 ug/disk by disk diffusion growth inhibition assay; format: functional; conditions: read-out: DIZ
[15] = test system: Burkholderia multivorans; test: Antimicrobial activity against genomovar type II Burkholderia multivorans LMG 13010 at 40 ug/disk by disk diffusion growth inhibition assay; format: functional; conditions: read-out: DIZ
[16] = test system: Burkholderia multivorans; test: Antimicrobial activity against genomovar type II Burkholderia multivorans CF-A1-1; format: functional
[17] = test system: Burkholderia multivorans; test: Antimicrobial activity against genomovar type II Burkholderia multivorans JTC; format: functional
[18] = test system: Burkholderia multivorans; test: Antimicrobial activity against genomovar type II Burkholderia multivorans C1962; format: functional
[19] = test system: Burkholderia multivorans; test: Antimicrobial activity against genomovar type II Burkholderia multivorans ATCC 17616; format: functional
[20] = test system: Burkholderia multivorans; test: Antimicrobial activity against genomovar type II Burkholderia multivorans 249-2; format: functional
[21] = test system: Burkholderia pyrrocinia; test: Antimicrobial activity against genomovar type IX Burkholderia pyrrocinia ATCC 15958 at 40 ug/disk by disk diffusion growth inhibition assay; format: functional; conditions: read-out: DIZ
[22] = test system: Burkholderia pyrrocinia; test: Antimicrobial activity against genomovar type IX Burkholderia pyrrocinia ATCC 39277 at 40 ug/disk by disk diffusion growth inhibition assay; format: functional; conditions: read-out: DIZ
[23] = test system: Burkholderia pyrrocinia; test: Antimicrobial activity against genomovar type IX Burkholderia pyrrocinia BC011 at 40 ug/disk by disk diffusion growth inhibition assay; format: functional; conditions: read-out: DIZ
[24] = test system: Burkholderia pyrrocinia; test: Antimicrobial activity against genomovar type IX Burkholderia pyrrocinia C1469 at 40 ug/disk by disk diffusion growth inhibition assay; format: functional
[25] = test system: Burkholderia multivorans; test: Antimicrobial activity against genomovar type II Burkholderia multivorans C5393; format: functional
[26] = test system: Burkholderia ambifaria; test: Antimicrobial activity against genomovar type VII Burkholderia ambifaria AMMD at 40 ug/disk by disk diffusion growth inhibition assay; format: functional; conditions: read-out: DIZ
[27] = test system: Burkholderia ambifaria; test: Antimicrobial activity against genomovar type VII Burkholderia ambifaria ATCC 53266 at 40 ug/disk by disk diffusion growth inhibition assay; format: functional; conditions: read-out: DIZ
[28] = test system: Burkholderia ambifaria; test: Antimicrobial activity against genomovar type VII Burkholderia ambifaria CEP0996 at 40 ug/disk by disk diffusion growth inhibition assay; format: functional; conditions: read-out: DIZ
[29] = test system: Burkholderia anthina; test: Antimicrobial activity against genomovar type VIII Burkholderia anthina W92 at 40 ug/disk by disk diffusion growth inhibition assay; format: functional
[30] = test system: Burkholderia vietnamiensis; test: Antimicrobial activity against genomovar type V Burkholderia vietnamiensis LMG 10929 at 40 ug/disk by disk diffusion growth inhibition assay; format: functional; conditions: read-out: DIZ
[31] = test system: Burkholderia dolosa; test: Antimicrobial activity against genomovar type VI Burkholderia dolosa AU0645 at 40 ug/disk by disk diffusion growth inhibition assay; format: functional; conditions: read-out: DIZ
[32] = test system: Burkholderia dolosa; test: Antimicrobial activity against genomovar type VI Burkholderia dolosa CEP021 at 40 ug/disk by disk diffusion growth inhibition assay; format: functional; conditions: read-out: DIZ
[33] = test system: Burkholderia dolosa; test: Antimicrobial activity against genomovar type VI Burkholderia dolosa E12 at 40 ug/disk by disk diffusion growth inhibition assay; format: functional; conditions: read-out: DIZ
[34] = test system: Burkholderia stabilis; test: Antimicrobial activity against genomovar type IV Burkholderia stabilis LMG 18888 at 40 ug/disk by disk diffusion growth inhibition assay; format: functional
[35] = test system: Burkholderia vietnamiensis; test: Antimicrobial activity against genomovar type V Burkholderia vietnamiensis PC259 at 40 ug/disk by disk diffusion growth inhibition assay; format: functional; conditions: read-out: DIZ
[36] = test system: Burkholderia vietnamiensis; test: Antimicrobial activity against genomovar type V Burkholderia vietnamiensis LMG 16232 at 40 ug/disk by disk diffusion growth inhibition assay; format: functional; conditions: read-out: DIZ
[37] = test system: Burkholderia cenocepacia; test: Antimicrobial activity against genomovar type III Burkholderia cenocepacia ATCC 17765 at 40 ug/disk by disk diffusion growth inhibition assay; format: functional, organism-based
[38] = test system: Burkholderia cenocepacia; test: Antimicrobial activity against genomovar type III Burkholderia cenocepacia SAL1 at 40 ug/disk by disk diffusion growth inhibition assay; format: functional, organism-based
[39] = test system: Burkholderia stabilis; test: Antimicrobial activity against genomovar type IV Burkholderia stabilis LMG 14294 at 40 ug/disk by disk diffusion growth inhibition assay; format: functional
[40] = test system: Burkholderia stabilis; test: Antimicrobial activity against genomovar type IV Burkholderia stabilis C7322 at 40 ug/disk by disk diffusion growth inhibition assay; format: functional; conditions: read-out: DIZ
[41] = test system: Burkholderia cenocepacia; test: Antimicrobial activity against genomovar type III Burkholderia cenocepacia C6433 at 40 ug/disk by disk diffusion growth inhibition assay; format: functional, organism-based
[42] = test system: Burkholderia cenocepacia; test: Antimicrobial activity against genomovar type III Burkholderia cenocepacia PC184 at 40 ug/disk by disk diffusion growth inhibition assay; format: functional; conditions: read-out: DIZ
[43] = test system: Burkholderia cenocepacia; test: Antimicrobial activity against genomovar type III Burkholderia cenocepacia CEP511 at 40 ug/disk by disk diffusion growth inhibition assay; format: functional, organism-based
[44] = test system: Burkholderia multivorans; test: Antimicrobial activity against genomovar type II Burkholderia multivorans 2492-2 at 40 ug/disk by disk diffusion growth inhibition assay; format: functional; conditions: read-out: DIZ
[45] = test system: Burkholderia cenocepacia; test: Antimicrobial activity against genomovar type III Burkholderia cenocepacia J2315 at 40 ug/disk by disk diffusion growth inhibition assay; format: functional, organism-based
[46] = test system: Burkholderia cenocepacia; test: Antimicrobial activity against genomovar type III Burkholderia cenocepacia K562 at 40 ug/disk by disk diffusion growth inhibition assay; format: functional, organism-based
[47] = test system: Burkholderia multivorans; test: Antimicrobial activity against genomovar type II Burkholderia multivorans C1576 at 40 ug/disk by disk diffusion growth inhibition assay; format: functional; conditions: read-out: DIZ
[48] = test system: Burkholderia multivorans; test: Antimicrobial activity against genomovar type II Burkholderia multivorans CFA11 at 40 ug/disk by disk diffusion growth inhibition assay; format: functional; conditions: read-out: DIZ
[49] = test system: Burkholderia multivorans; test: Antimicrobial activity against genomovar type II Burkholderia multivorans JTC at 40 ug/disk by disk diffusion growth inhibition assay; format: functional; conditions: read-out: DIZ
[50] = test system: Burkholderia multivorans; test: Antimicrobial activity against genomovar type II Burkholderia multivorans C1962 at 40 ug/disk by disk diffusion growth inhibition assay; format: functional; conditions: read-out: DIZ
[51] = test system: Burkholderia cepacia; test: Antimicrobial activity against genomovar type I Burkholderia cepacia ATCC 25416 at 40 ug/disk by disk diffusion growth inhibition assay; format: functional, organism-based
[52] = test system: Burkholderia cepacia; test: Antimicrobial activity against genomovar type I Burkholderia cepacia ATCC 17759 at 40 ug/disk by disk diffusion growth inhibition assay; format: functional, organism-based
[53] = test system: Burkholderia cepacia; test: Antimicrobial activity against genomovar type I Burkholderia cepacia CEP509 at 40 ug/disk by disk diffusion growth inhibition assay; format: functional, organism-based
[54] = test system: Burkholderia multivorans; test: Antimicrobial activity against genomovar type II Burkholderia multivorans C5393 at 40 ug/disk by disk diffusion growth inhibition assay; format: functional; conditions: read-out: DIZ

MIC [1]: 0.78 µg/mL | MIC [2]: 3.13 µg/mL | MIC [3]: 3.13 µg/mL
Compound: POLYMYXIN B

MIC [4]: 12.5 µg/mL (≈ 28.6 µM) | MIC [16]: 1.56 µg/mL (≈ 3.57 µM) | MIC [17]: 1.56 µg/mL (≈ 3.57 µM) | MIC [18]: 3.13 µg/mL (≈ 7.15 µM) | MIC [19]: 6.25 µg/mL (≈ 14.3 µM) | MIC [20]: 0.1 µg/mL (≈ 0.229 µM) | MIC [1]: 0.05 µg/mL (≈ 0.114 µM) | MIC [2]: 0.78 µg/mL (≈ 1.78 µM) | MIC [3]: 0.78 µg/mL (≈ 1.78 µM) | MIC [25]: 3.13 µg/mL (≈ 7.15 µM)
Compound: C[C@@H](O)[C@H](NC(=O)c1ccc(C#Cc2ccc(CN3CCOCC3)cc2)cc1)C(=O)NO
zone of inhibition at 40 µg/disc [5]: 10 mm | diameter of the inhibition zone (DIZ) [6]: inactive | zone of inhibition at 40 µg/disc [7]: 13 mm | zone of inhibition at 40 µg/disc [8]: 21 mm | diameter of the inhibition zone (DIZ) [9]: inactive | zone of inhibition at 40 µg/disc [10]: 9 mm | diameter of the inhibition zone (DIZ) [11]: inactive | zone of inhibition at 40 µg/disc [12]: 21 mm | zone of inhibition at 40 µg/disc [13]: 19 mm | zone of inhibition at 40 µg/disc [14]: 17 mm | zone of inhibition at 40 µg/disc [15]: 14 mm | zone of inhibition at 40 µg/disc [21]: 20 mm | zone of inhibition at 40 µg/disc [22]: 22 mm | zone of inhibition at 40 µg/disc [23]: 23 mm | diameter of the inhibition zone (DIZ) [24]: inactive | zone of inhibition at 40 µg/disc [26]: 23 mm | zone of inhibition at 40 µg/disc [27]: 24 mm | zone of inhibition at 40 µg/disc [28]: 22 mm | diameter of the inhibition zone (DIZ) [29]: inactive | zone of inhibition at 40 µg/disc [30]: 23 mm | zone of inhibition at 40 µg/disc [31]: 18 mm | zone of inhibition at 40 µg/disc [32]: 24 mm | zone of inhibition at 40 µg/disc [33]: 23 mm | diameter of the inhibition zone (DIZ) [34]: inactive | zone of inhibition at 40 µg/disc [35]: 26 mm | zone of inhibition at 40 µg/disc [36]: 23 mm | diameter of the inhibition zone (DIZ) [37]: inactive | diameter of the inhibition zone (DIZ) [38]: inactive | diameter of the inhibition zone (DIZ) [39]: inactive | zone of inhibition at 40 µg/disc [40]: 14 mm | diameter of the inhibition zone (DIZ) [41]: inactive | zone of inhibition at 40 µg/disc [42]: 18 mm | diameter of the inhibition zone (DIZ) [43]: inactive | zone of inhibition at 40 µg/disc [44]: 26 mm | diameter of the inhibition zone (DIZ) [45]: inactive | diameter of the inhibition zone (DIZ) [46]: inactive | zone of inhibition at 40 µg/disc [47]: 15 mm | zone of inhibition at 40 µg/disc [48]: 22 mm | zone of inhibition at 40 µg/disc [49]: 23 mm | zone of inhibition at 40 µg/disc [50]: 24 mm | diameter of the inhibition zone (DIZ) [51]: inactive | diameter of the inhibition zone (DIZ) [52]: inactive | diameter of the inhibition zone (DIZ) [53]: inactive | zone of inhibition at 40 µg/disc [54]: 20 mm

— ChEMBL document CHEMBL1275257, “Antimicrobial activity of CHIR-090, an inhibitor of lipopolysaccharide biosynthesis, against the Burkholderia cepacia complex” (2010)
